Test results from patent US20080103127A1, “METHODS FOR TREATING DISRUPTIVE BEHAVIOR DISORDERS” (priority 2006, published 2008).

Test system: submissive rats
Test: Reduction of Submissive Behavior Model (RSBM) of depression, dominant-submissive rat food competition test
Assay type: in vivo, Sprague-Dawley rats
Description: In this study, the effects of COMPOUND #7 on dominant or submissive behavior in pairs of rats competing for food are examined. It has been shown that anti-manic drugs, including anticonvulsants, decrease dominance and antidepressant drugs reduce submissiveness. This model uses dominant behavior as a model of mania and submissive behavior as a model of depression. The dominance and submissiveness is defined in a competition test and measured as the relative success of two food-restricted rats to gain access to a feeder. Rats are randomly paired and placed in an apparatus allowing them to compete for a food reward. The dominant-submissive relationship develops over a 2-week period. The submissive or dominant animals in pairs selected after 2 weeks of training were treated orally […] (b.i.d.) with COMPOUND #7 at 3 or 30 mg/kg for 5 weeks. The partner of the drug-treated animal was treated with vehicle.
The objective of this study was to determine if COMPOUND #7 is active in the Reduction of Submissive Behavior Model (RSBM) of depression and the Reduction of Dominant Behavior Model (RDBM) of mania. Measurements were made at two doses (3 and 30 mg/kg) after oral twice a day (b.i.d.) administration. The effect of the drug in the RSBM was compared to the effect of fluoxetine (10 mg/kg) and vehicle (0.5% methylcellulose). The effect of the drug in the RDBM was compared with the effect of lithium (100 mg/kg) and vehicle (0.5% methylcellulose). The endpoints measured were the development of a significant reduction of submissive or dominant behavior and its time of onset.
The DSR developed by two rats competing for food uses the apparatus in FIG. 1. The methodology and equipment are described in several publications. (See, Malatynska E, Goldenberg R, Shuck L, Haque A, Zamecki P, Crites G, Schindler N, Knapp R J. Reduction of submissive behavior in rats: a test for antidepressant drug activity. Pharmacology 2002; 64:8; Malatynska E, Rapp R, Crites G. Dominant behavior measured in a competition test as a model of mania. In: International Behavioral Neuroscience Society Meeting, ed. IBNSCapri, Italy, 2002, p 26.; Bonnet U. Moclobemide: therapeutic use and clinical studies. CNS Drug Rev 2003; 9:97; Danysz W, Plaznik A, Kostowski W, Malatynska E, Jarbe T U, Hiltunen A J, Archer T. Comparison of desipramine, amitriptyline, zimeldine and alaproclate in six animal models used to investigate antidepressant drugs. Pharmacol Toxicol 1988; 62:42; Knapp R J, Goldenberg R, Shuck C, Cecil A, Watkins J, Miller C, Crites G, Malatynska E. Antidepressant activity of memory-enhancing drugs in the reduction of submissive behavior model. Eur J Pharmacol 2002; 440:27; Kostowski W, Malatynska E, Plaznik A, Dyr W, Danysz W. Comparative studies on antidepressant action of alprazolam in different animal models. Pol J Pharmacol Pharm 1986; 38, 471; Malatynska E, De Leon I, Allen D, Yamamura Hi. Effects of amitriptyline on GABA-stimulated ^36Cl^− uptake in relation to a behavioral model of depression. Brain Res Bull 1995; 37:53; Malatynska E, Kostowski W. The effect of antidepressant drugs on dominance behavior in rats competing for food. Pol J Pharmacol Pharm 1984; 36:531; Malatynska E, Kostowski W. Desipramine antagonizes clonidine-induced suppression of dominance in rats: possible involvement of amygdaloid nuclei. Pol J Pharmacol Pharm 1988; 40:357).
In the experiments described in this report Sprague-Dawley rats weighing 160 to 180 g were used. Testing for the development of a DSR between paired rats begins with the random assignment of rats into pairs. Rats from pairs are housed separately between test sessions with other animals in groups of four. The animals are food-deprived overnight with free access to water.
The test involves placing each member of a pair in opposite chambers of the testing apparatus. These chambers are connected through a narrow tunnel with a small container of sweetened milk at the center. […]

SMILES: NC(=O)OC[C@@H](O)c1ccccc1Cl [COMPOUND #7, carisbamate]
- effect on submissive rat behavior (3 mg/kg b.i.d. p.o., 5 weeks, submissive rat treated, partner vehicle): did not have any effect
- onset of increased competitiveness of submissive rats (time of treatment) (30 mg/kg b.i.d. p.o.): 1 week
- efficacy in submissive rats compared with fluoxetine (30 mg/kg b.i.d. p.o. vs fluoxetine 10 mg/kg i.p. once a day): same efficacy as fluoxetine
- competitiveness of submissive rat compared to vehicle-treated submissive rats (30 mg/kg b.i.d. p.o., 5 weeks, submissive rat treated): significantly increased competitiveness
